Laboratory results taken from ChEMBL document CHEMBL1127074, “Novel hypotensive agents from Verbesina caracasana. 2. Synthesis and pharmacology of caracasanamide” (1993).
Where “and” joins values, the source holds several entries; their conditions need not be identical. Equal entries are not always repeated.

Key:
Rattus norvegicus [1] = assay: Change in heart rate administered at 1600 ug/kg iv in anesthetized rats in presence of hexamethonium (5 mg/kg) (p<0.05); format: functional
Rattus norvegicus [2] = assay: Change in heart rate administered at 1600 ug/kg iv in anesthetized rats in presence of propranolol (3 mg/kg) (p<0.05); format: functional
Rattus norvegicus [3] = assay: Maximum rate of rise of the left ventricular isovolumetric pressure (dP/dt) administered at 1600 ug/kg iv in anesthetized rats; format: functional, Heart left ventricle
Rattus norvegicus [4] = assay: Change in respiratory frequency administered at 3200 ug/kg iv in anesthetized rats; format: functional
Rattus norvegicus [5] = assay: Tested for the change in diastolic blood pressure administered at 800 ug/kg intravenously in anesthetized rats; format: functional, Artery
Rattus norvegicus [6] = assay: Maximum rate of rise of the left ventricular isovolumetric pressure administered at 800 ug/kg iv in anesthetized rats in presence of phentolamine (2 mg/kg); format: functional, Heart left ventricle
Rattus norvegicus [7] = assay: Change in heart rate administered at 6400 ug/kg iv in anesthetized rats in presence of propranolol (3 mg/kg) (p<0.05); format: functional
Rattus norvegicus [8] = assay: Maximum rate of rise of the left ventricular isovolumetric pressure (dP/dt) administered at 400 ug/kg iv in anesthetized rats; format: functional, Heart left ventricle
Rattus norvegicus [9] = assay: Maximum rate of rise of the left ventricular isovolumetric pressure administered at 3200 ug/kg iv in anesthetized rats in presence of hexamethonium (5 mg/kg) (p<0.05); format: functional, Heart left ventricle
Rattus norvegicus [10] = assay: Maximum rate of rise of the left ventricular isovolumetric pressure administered at 100 ug/kg iv in anesthetized rats in presence of spinalization under vagotomy; format: functional, Heart left ventricle
Rattus norvegicus [11] = assay: Change in heart rate administered at 3200 ug/kg iv in anesthetized rats in presence of propranolol (3 mg/kg) (p<0.05); format: functional
Rattus norvegicus [12] = assay: Tested for the change in systolic blood pressure administered at 200 ug/kg intravenously in anesthetized rats; format: functional, Artery
Rattus norvegicus [13] = assay: Maximum rate of rise of the left ventricular isovolumetric pressure administered at 3200 ug/kg iv in anesthetized rats in presence of […] (3 mg/kg) (p<0.05); format: functional, Heart left ventricle
Rattus norvegicus [14] = assay: Tested for the change in systolic blood pressure administered at 50 ug/kg intravenously in anesthetized rats; format: functional, Artery
Rattus norvegicus [15] = assay: Tested for the change in systolic blood pressure administered at 200 ug/kg iv in anesthetized rats in presence of spinalization under vagotomy; format: functional, Artery
Rattus norvegicus [16] = assay: Maximum rate of rise of the left ventricular isovolumetric pressure administered at 3200 ug/kg iv in anesthetized rats in presence of spinalization under vagotomy (p<0.05); format: functional, Heart left ventricle
Rattus norvegicus [17] = assay: Change in respiratory frequency administered at 1600 ug/kg iv in anesthetized rats; format: functional
Rattus norvegicus [18] = assay: Change in respiratory frequency administered at 800 ug/kg iv in anesthetized rats; format: functional
Rattus norvegicus [19] = assay: Change in respiratory frequency administered at 400 ug/kg iv in anesthetized rats; format: functional
Rattus norvegicus [20] = assay: Tested for the change in systolic blood pressure administered at 1600 ug/kg intravenously in anesthetized rats in presence of hexamethonium (5 mg/kg) (p<0.05); format: functional, Artery
Rattus norvegicus [21] = assay: Tested for the change in systolic blood pressure administered at 400 ug/kg intravenously in anesthetized rats; format: functional, Artery
Rattus norvegicus [22] = assay: Maximum rate of rise of the left ventricular isovolumetric pressure administered at 6400 ug/kg iv in anesthetized rats in presence of […] (3 mg/kg) (p<0.05); format: functional, Heart left ventricle
Rattus norvegicus [23] = assay: Tested for the change in systolic blood pressure administered at 6400 ug/kg intravenously in anesthetized rats; format: functional, Artery
Rattus norvegicus [24] = assay: Tested for the change in systolic blood pressure administered at 200 ug/kg intravenously in anesthetized rats in presence of spinalization under vagotomy; format: functional, Artery
Rattus norvegicus [25] = assay: Tested for the change in systolic blood pressure administered at 100 ug/kg intravenously in anesthetized rats; format: functional, Artery
Rattus norvegicus [26] = assay: Maximum rate of rise of the left ventricular isovolumetric pressure administered at 4.12 uM/kg iv in anesthetized rats; format: functional, Heart left ventricle
Rattus norvegicus [27] = assay: Tested for the change in systolic blood pressure administered at 800 ug/kg intravenously in anesthetized rats in presence of propranolol (3 mg/kg); format: functional, Artery
Rattus norvegicus [28] = assay: Tested for the change in systolic blood pressure administered at 1600 ug/kg intravenously in anesthetized rats; format: functional, Artery
Rattus norvegicus [29] = assay: Tested for the change in systolic blood pressure administered at 800 ug/kg intravenously in anesthetized rats in presence of phentolamine (2 mg/kg); format: functional, Artery
Rattus norvegicus [30] = assay: Tested for the change in systolic blood pressure administered at 6400 ug/kg intravenously in anesthetized rats in presence of hexamethonium (5 mg/kg) (p<0.05); format: functional, Artery
Rattus norvegicus [31] = assay: Change in heart rate administered at 3200 ug/kg iv in anesthetized rats in presence of hexamethonium (5 mg/kg) (p<0.05); format: functional
Rattus norvegicus [32] = assay: Tested for the change in systolic blood pressure administered at 3200 ug/kg iv in anesthetized rats in presence of spinalization under vagotomy (p<0.05); format: functional, Artery
Rattus norvegicus [33] = assay: Change in heart rate administered at 100 ug/kg iv in anesthetized rats in presence of spinalization under vagotomy; format: functional
Rattus norvegicus [34] = assay: Tested for the change in systolic blood pressure administered at 6400 ug/kg intravenously in anesthetized rats in presence of propranolol (3 mg/kg); format: functional, Artery
Rattus norvegicus [35] = assay: Maximum rate of rise of the left ventricular isovolumetric pressure administered at 200 ug/kg iv in anesthetized rats in presence of spinalization under vagotomy; format: functional, Heart left ventricle
Rattus norvegicus [36] = assay: Tested for the change in diastolic blood pressure administered at 400 ug/kg intravenously in anesthetized rats; format: functional, Artery
Rattus norvegicus [37] = assay: Tested for the change in diastolic blood pressure administered at 3200 ug/kg iv in anesthetized rats in presence of phentolamine (2 mg/kg); format: functional, Artery
Rattus norvegicus [38] = assay: Change in respiratory frequency administered at 6400 ug/kg iv in anesthetized rats; format: functional
Rattus norvegicus [39] = assay: Change in respiratory frequency administered at 50 ug/kg iv in anesthetized rats; format: functional
Rattus norvegicus [40] = assay: Maximum rate of rise of the left ventricular isovolumetric pressure administered at 6400 ug/kg iv in anesthetized rats in presence of hexamethonium (5 mg/kg) (p<0.05); format: functional, Heart left ventricle
Rattus norvegicus [41] = assay: Tested for the change in diastolic blood pressure administered at 3200 ug/kg iv in anesthetized rats in presence of propranolol (3 mg/kg); format: functional, Artery
Rattus norvegicus [42] = assay: Change in heart rate administered at 800 ug/kg iv in anesthetized rats in presence of phentolamine (2 mg/kg); format: functional
Rattus norvegicus [43] = assay: Maximum rate of rise of the left ventricular isovolumetric pressure administered at 3200 ug/kg iv in anesthetized rats in presence of phentolamine (2 mg/kg); format: functional, Heart left ventricle

COc1ccc(/C=C/C(=O)NCCCC/N=C(\N)NCC=C(C)C)cc1OC
Heart rate (Rattus norvegicus [1]): 10 beats min-1
Heart rate (Rattus norvegicus [2]): 7 beats min-1
BP (Rattus norvegicus [3]): 57%
dp/dt (Rattus norvegicus [3]): 2996 mmHg s-1
Frequency (Rattus norvegicus [4]): -41 beats min-1 and -39%
Blood pressure (Rattus norvegicus [5]): -15 mmHg and -23%
dp/dt (Rattus norvegicus [6]): 2503 mmHg s-1
Heart rate (Rattus norvegicus [7]): 11 beats min-1
BP (Rattus norvegicus [8]): 33%
dp/dt (Rattus norvegicus [8]): 1712 mmHg s-1
dp/dt (Rattus norvegicus [9]): 1124 mmHg s-1
dp/dt (Rattus norvegicus [10]): 0 mmHg s-1
Heart rate (Rattus norvegicus [11]): 9 beats min-1
Blood pressure (Rattus norvegicus [12]): -11 mmHg and -14%
dp/dt (Rattus norvegicus [13]): 760 mmHg s-1
Blood pressure (Rattus norvegicus [14]): -4 mmHg and -5%
Blood pressure (Rattus norvegicus [15]): 0 mmHg
dp/dt (Rattus norvegicus [16]): 680 mmHg s-1
Frequency (Rattus norvegicus [17]): 23 beats min-1 and 21%
Frequency (Rattus norvegicus [18]): 25 beats min-1 and 24%
Frequency (Rattus norvegicus [19]): 16 beats min-1 and 16%
Blood pressure (Rattus norvegicus [20]): -8 mmHg
Blood pressure (Rattus norvegicus [21]): -15 mmHg and -18%
dp/dt (Rattus norvegicus [22]): 853 mmHg s-1
Blood pressure (Rattus norvegicus [23]): -34 mmHg and -40%
Blood pressure (Rattus norvegicus [24]): 0 mmHg
Blood pressure (Rattus norvegicus [25]): -6 mmHg and -8%
dP/dtmax (Rattus norvegicus [26]): 3000 mmHg/s
Blood pressure (Rattus norvegicus [27]): -18 mmHg
Blood pressure (Rattus norvegicus [28]): -21 mmHg and -26%
Blood pressure (Rattus norvegicus [29]): -22 mmHg
Blood pressure (Rattus norvegicus [30]): -13 mmHg
Heart rate (Rattus norvegicus [31]): 9 beats min-1
Blood pressure (Rattus norvegicus [32]): -8 mmHg and -12 mmHg
Heart rate (Rattus norvegicus [33]): 0 beats min-1
Blood pressure (Rattus norvegicus [34]): -35 mmHg
dp/dt (Rattus norvegicus [35]): 0 mmHg s-1
Blood pressure (Rattus norvegicus [36]): -14 mmHg and -23%
Blood pressure (Rattus norvegicus [37]): -39 mmHg
Frequency (Rattus norvegicus [38]): -87 beats min-1 and -80%
Frequency (Rattus norvegicus [39]): 6 beats min-1 and 6%
dp/dt (Rattus norvegicus [40]): 1447 mmHg s-1
Blood pressure (Rattus norvegicus [41]): -26 mmHg
Heart rate (Rattus norvegicus [42]): 17 beats min-1
dp/dt (Rattus norvegicus [43]): 2627 mmHg s-1
